Reference: patent EP0002426B1, “Antiperspirant” (priority 1977, dated 1979)
Where “and” joins values, the source holds several entries; their conditions need not be identical. Identical values can stand only once. Like-named read-outs stand apart in the source and are kept apart here.

How the values were obtained:
[1] = system: adrenaline-induced local sweating; assay: OPT-test of sweat response after intradermal adrenaline, epidermal application of local anesthetic emulsions on the forearm; format: in vivo, volunteers; conditions: for sweat response, induced by intracutaneous administration of adrenaline: 12 volunteers, epidermal application; for number of black-coloured sweat pores (OPT-test), M1-10: mean of patients 1-10; for number of black-coloured sweat pores (OPT-test), M1-12: mean of patients 1-12
Procedure: (§1) The anti perspiration effect of the present invention was determined in an experimental investigation of dermal analgesia and influence upon adrenaline-induced local sweating by epidermal application of different local anesthetic formulations.
(§2) 12 healthy medical students took part in the study.
(§3) Pre-formed pads, consisting of cellulose fibres, 2 times 2 centimetres, were soaked by a standardized procedure in either an emulsion containing 5% lidocaine base + 5% prilocaine base, an emulsifying agent and water, 10% lidocaine base in the same vehicle, 10% prilocaine base in the same vehicle, or a placebo emulsion containing the emulsifying agent and water only. On one forearm of the volunteer the four different emulsions were applied under occlusive dressings consisting of an impervious tape, while on the other arm the four emulsions were applied under a non-occlusive dressing, using surgical tape (3M). A certain distance between the application areas was chosen in order to avoid any risk of interference between them.
(§4) On the arms of the volunteers 11 and 12 the emulsions were applied directly to the skin, with no cellulose pads, but with occlusive and non-occlusive dressings applied as in the other volunteers.
(§5) The application time for the pads was 60 minutes.
(§6) Immediately after removal of the pads, the square areas under the two types of dressing were marked at the edges. A line was also marked within each applied area dividing them into two identical triangles. One of these surfaces were then used by pin-prick experiments, the other for studying the sweat response.
(§7) Just under the apex of each test area triangle an intradermal wheal 0.1 ml adrenaline 1:10 000 was injected. Pain on injection was noted. The test area was then swabbed with OPT (5% orthophthaldialdehyde in xylol). After drying the OPT-applied area a plastic ring with adhesive on the back side was placed over the visible vasoconstricted area caused by the adrenaline effect, within the test triangle previously covered by the test compositions. The number of black-coloured sweat pores within the standardized diameter hole in the plastic rings was counted under a direct vision microscope.

dermal analgesia = assay: Pin-prick test of dermal analgesia after epidermal application of local anesthetic emulsions on the forearm; format: in vivo, volunteers; conditions: for Pin-prick test, M1–10: mean of patients 1-10 (out of 10 pin-pricks); for Pin-prick test, M1–12: mean of patients 1-12; for dermal analgesia, effectiveness versus placebo emulsion: under occlusion as well as under a non-occlusive bandage
Procedure: as §1, §2, §3, §4, §5, §6
The pin-pricking procedure was carried out with disposable dental needles. In each of the test areas 10 pin-pricks were made. 10/10 represents full analgesia, 0/10 no analgesia.

[2] = Pain on intradermal injection of adrenaline solution in the test areas; format: in vivo; conditions: 0.1 ml adrenaline 1:10 000 in the test area; all volunteers
Procedure: as §7
All volunteers reported pain at the intradermal injection of adrenaline solution at the placebo, the lidocaine and the prilocaine areas but not at the lidocaine-prilocaine areas.

[3] = cited from earlier work
[4] = Non-Occlusion, individual Patient No 1-10, soaked cellulose pads, 60 minutes
[5] = Non-Occlusion, individual Patient No 11, 12, emulsions applied directly to the skin, no cellulose pads
[6] = Occlusion, individual Patient No 1-10, soaked cellulose pads, 60 minutes, L—P 5%+5%, L 10%, P 10% emulsion
[7] = Occlusion, individual Patient No 11, 12, emulsions applied directly to the skin, no cellulose pads
[8] = Non-Occlusion, individual Patient No 1-10, pads, 60 minutes, 10/10 full analgesia, 0/10 no analgesia
[9] = Occlusion, individual Patient No 1-10, pads, 60 minutes, 10 pin-pricks, 10/10 full analgesia, 0/10 no analgesia
[10] = total concentration of 10%, aqueous emulsion

## CCN(CC)CC(=O)Nc1c(C)cccc1C [L, Diethylaminoacet-2',6'-xylidide]
[1]
  sweat response, induced by intracutaneous administration of adrenaline: partly blocked
[1]; [4]
  number of black-coloured sweat pores (OPT-test): 42 and 24 (4×) and 29 and 27 and 25 and 19 and 32
[1]; [5]
  number of black-coloured sweat pores (OPT-test): 22 and 33
[1]; Non-Occlusion
  number of black-coloured sweat pores (OPT-test), M1-10: 27.0
  number of black-coloured sweat pores (OPT-test), M1-12: 27.08
[1]; [6]
  number of black-coloured sweat pores (OPT-test): 22 (2×) and 25 and 20 (2×) and 24 (2×) and 16 (2×) and 28
[1]; [7]
  number of black-coloured sweat pores (OPT-test): 12 and 26
[1]; Occlusion
  number of black-coloured sweat pores (OPT-test), M1-10: 21.7
  number of black-coloured sweat pores (OPT-test), M1-12: 21.25
[1]; under non-occlusive bandage
  sweat response, effectiveness versus placebo: more effective than placebo
[1]; under occlusive bandage
  sweat response, effectiveness versus placebo: significantly more effective than placebo
Dermal analgesia; [8]
  Pin-prick test: 0/10 (9×) and 1/10
Dermal analgesia; [5]
  Pin-prick test: 0/10
Dermal analgesia; Non-Occlusion
  Pin-prick test, M1–10: 0.10
  Pin-prick test, M1–12: 0.08
Dermal analgesia; [9]
  Pin-prick test: 0/10 (5×) and 2/10 (3×) and 5/10 and 3/10
Dermal analgesia; [7]
  Pin-prick test: 8/10 and 6/10
Dermal analgesia; Occlusion
  Pin-prick test, M1–10: 1.40
  Pin-prick test, M1–12: 2.33
Dermal analgesia
  dermal analgesia, effectiveness versus placebo emulsion: insignificantly more effective than the placebo emulsion
[2]
  pain at the intradermal injection of adrenaline solution: reported pain

## CCCNC(C)C(=O)Nc1ccccc1C (stereo not shown) [P, 2-propylamino-N-(2-tolyl)propionamide]
[1]
  sweat response, induced by intracutaneous administration of adrenaline: partly blocked
[1]; [4]
  number of black-coloured sweat pores (OPT-test): 46 and 18 (2×) and 34 and 24 and 26 (2×) and 25 and 21 and 40
[1]; [5]
  number of black-coloured sweat pores (OPT-test): 14 and 20
[1]; Non-Occlusion
  number of black-coloured sweat pores (OPT-test), M1-10: 27.8
  number of black-coloured sweat pores (OPT-test), M1-12: 26.0
[1]; [6]
  number of black-coloured sweat pores (OPT-test): 24 (2×) and 30 and 17 and 52 and 18 and 22 and 15 and 28
[1]; [7]
  number of black-coloured sweat pores (OPT-test): 24 and 16
[1]; Occlusion
  number of black-coloured sweat pores (OPT-test), M1-10: 25.6
  number of black-coloured sweat pores (OPT-test), M1-12: 24.54
[1]; [10]
  sweat response inhibition, compared among the tested formulations: less effective
[1]; under non-occlusive bandage
  sweat response, effectiveness versus placebo: more effective than placebo
[1]; under occlusive bandage
  sweat response, effectiveness versus placebo: significantly more effective than placebo
Dermal analgesia; [8]
  Pin-prick test: 1/10 and 0/10 (8×) and 6/10
Dermal analgesia; [5]
  Pin-prick test: 2/10 and 0/10
Dermal analgesia; Non-Occlusion
  Pin-prick test, M1–10: 0.70
  Pin-prick test, M1–12: 0.75
Dermal analgesia; [9]
  Pin-prick test: 2/10 and 0/10 (6×) and 10/10 and 1/10
Dermal analgesia; [7]
  Pin-prick test: 7/10 and 9/10
Dermal analgesia; Occlusion
  Pin-prick test, M1–10: 1.44
  Pin-prick test, M1–12: 2.64
Dermal analgesia; [10]
  dermal analgesia (pin-pricking), compared among the tested formulations: less effective
Dermal analgesia
  dermal analgesia, effectiveness versus placebo emulsion: insignificantly more effective than the placebo emulsion
[2]
  pain at the intradermal injection of adrenaline solution: reported pain

## CCN(CC)CCOC(=O)c1ccc(N)cc1 [procaine]
[3]; administered electrophoretically
  antihydrotic effect: possesses an antihydrotic effect
[3]; without electrophoresis, only topically
  antihydrotic effect: will not give any antihydrotic effect
